Columns and labels:
[1] = Volume of distribution at steady state in Sprague-Dawley rat at 2.5 mg/kg; format: ADME, organism-based; conditions: in vivo, read-out: Vdss
Heat shock protein HSP90 = Heat shock protein HSP90 (Homo sapiens, UniProt P07900+P08238); assay: Inhibition of human recombinant HSP90 by scintillation proximity competition binding assay; format: protein assay
[2] = Lipophilicity, log P of the compound; conditions: octanol/water
[3] = Distribution coefficient, log D of the compound; format: physicochemical; conditions: octanol/water
Homo sapiens [4] = species: Homo sapiens; assay: Unbound volume of distribution at steady state in human; format: ADME, organism-based; conditions: in vivo
Homo sapiens [5] = species: Homo sapiens; assay: Unbound intrinsic clearance in human; format: ADME, organism-based; conditions: in vivo
Plasma = assay: (§1) Unbound fraction in human plasma; format: ADME, cell-free
[6] = Volume of distribution at steady state in human; conditions: in vivo
[7] = Dissociation constant of the compound; format: physicochemical
[8] = as §1; format: ADME, cell-free
[9] = Volume of distribution at steady state in mouse; format: ADME, organism-based; conditions: in vivo, read-out: Vdss
[10] = Volume of distribution at steady state in wild type mouse; format: ADME, organism-based; conditions: in vivo, read-out: Vdss

Work on `CC(C)(CC(F)(F)F)NC(=O)N1Cc2nc(N)nc(-c3c(Cl)cc(Cl)cc3OCCn3cccn3)c2C1` yielded a Vd [1] of 2 L/kg and a Ki (Heat shock protein HSP90) of 9.7 nM.

`CC(C)(CC(F)(F)F)NC(=O)N1Cc2nc(N)nc(-c3c(Cl)cc(Cl)cc3OCCn3cc(F)cn3)c2C1` showed a Vd [1] of 13 L/kg and a Ki (Heat shock protein HSP90) of 2.1 nM.

Compound `CC(F)(F)CC(C)(C)NC(=O)N1Cc2nc(N)nc(-c3c(Cl)cc(Cl)cc3OCCn3cccn3)c2C1` has a Vd [1] of 1.8 L/kg and a Ki (Heat shock protein HSP90) of 6.6 nM.

`CC(F)(F)CC(C)(C)NC(=O)N1Cc2nc(N)nc(-c3c(Cl)cc(Cl)cc3OCCn3cc(F)cn3)c2C1` showed a Vd [1] of 10 L/kg and a Ki (Heat shock protein HSP90) of 1.7 nM.

For `CC(C)(NC(=O)N1Cc2nc(N)nc(-c3c(Cl)cc(Cl)cc3OCCn3cccn3)c2C1)C12CC(C1)C2`, the Vd [1] was 1.8 L/kg and the Ki (Heat shock protein HSP90) was 7.3 nM.

`CC(C)(NC(=O)N1Cc2nc(N)nc(-c3c(Cl)cc(Cl)cc3OCCn3cc(F)cn3)c2C1)C12CC(C1)C2` gave a Vd [1] of 11 L/kg and a Ki (Heat shock protein HSP90) of 3.3 nM.

With `CCOC(=O)C1=C(COCCN)NC(C)=C(C(=O)OC)C1c1ccccc1Cl` (stereo not given) [AMLODIPINE] the logP [2] was 3.3 and the logD ([3]; read-out: logD) was 1.2.

For `CC(C)NCC(O)COc1ccc(CCOCC2CC2)cc1` (stereo not given) [BETAXOLOL], the logD [3] was 1.1, the Vduss (Homo sapiens [4]) was 13 L/kg and the CL free (Homo sapiens [5]) was 13 mL/min/kg.

With `CN(C)CCC(c1ccc(Cl)cc1)c1ccccn1` (stereo not given) [CHLORPHENIRAMINE] the logP [2] was 3.4, the logD ([3]; read-out: logD) was 1.5 and the Fu (Plasma) was 0.056. The Vd [6] was 10 L/kg and the Vduss (Homo sapiens [4]) was 178 L/kg.

For `OC(Cn1cncn1)(Cn1cncn1)c1ccc(F)cc1F` [FLUCONAZOLE], the Vduss (Homo sapiens [4]) was 0.84 L/kg.

`CNCCC(Oc1ccc(C(F)(F)F)cc1)c1ccccc1` (stereo not given) [FLUOXETINE] gave a pKa [7] of 10.5, a fraction unbound [8] of 0.06 and a Vd [6] of 4.3 L/kg. The Vduss (Homo sapiens [4]) was 71 L/kg.

`O=C(CCCN1CCC(O)(c2ccc(Cl)cc2)CC1)c1ccc(F)cc1` [HALOPERIDOL] showed a Vd [9] of 0.6 L/kg.

Work on `COc1ccc2c(c1)c(CC(=O)O)c(C)n2C(=O)c1ccc(Cl)cc1` [INDOMETHACIN] yielded a logD ([3]; read-out: logD) of 0.7, a Fu (Plasma) of 0.01 and a Vduss (Homo sapiens [4]) of 9.6 L/kg.

With `CC(C(=O)O)c1cccc(C(=O)c2ccccc2)c1` (stereo not given) [KETOPROFEN] the logP [2] was 2.9 and the logD ([3]; read-out: logD) was 0.2.

With `COCCc1ccc(OCC(O)CNC(C)C)cc1` (stereo not given) [METOPROLOL] the logD ([3]; read-out: logD) was -0.1, the Vduss (Homo sapiens [4]) was 4 L/kg and the CL free (Homo sapiens [5]) was 33 mL/min/kg.

For `COCCOC(=O)C1=C(C)NC(C)=C(C(=O)OC(C)C)C1c1cccc([N+](=O)[O-])c1` (stereo not given) [NIMODIPINE], the logP [2] was 4.2.

With `CC[C@H](C)C(=O)O[C@H]1C[C@H](O)C=C2C=C[C@H](C)[C@H](CC[C@@H](O)C[C@@H](O)CC(=O)O)[C@H]21` [PRAVASTATIN] the Vd [10] was 0.27 L/kg.

Work on `CCC(C)(C)C(=O)O[C@H]1C[C@@H](C)C=C2C=C[C@H](C)[C@H](CC[C@@H]3C[C@@H](O)CC(=O)O3)[C@H]21` [SIMVASTATIN] yielded a Vd [10] of 14 L/kg.

Work on `O=c1n(CCCN2CCN(c3cccc(Cl)c3)CC2)nc2ccccn12` [TRAZODONE] yielded a Vd [9] of 18 L/kg.

Reference: ChEMBL document CHEMBL3588773, “Volume of Distribution in Drug Design” (J Med Chem, 2015)
